Measurements published in US9164109B2, “Use of probes for unbound metabolites” (priority 2006, dated 2015).

Target: T1, HSA (Homo sapiens, UniProt P02768)
T1 construct: from tissue; host or cells: blood plasma of healthy adult donors, diluted to 1%
Test: Equilibrium-binding model of UCB and HSA
Details: value used to calculate model [UCBf], [HSA]=6.5 μM, FIG. 2
Protocol: Investigations of the effects of FFA on our UCB probes are necessary because the probes are constructed from FABP mutants and FFA are abundant in plasma. Interference testing of every possible component of plasma, however, is not feasible. Therefore UCBf was measured in samples of diluted plasma, from 6 healthy adult donors, titrated with UCB. Because the [UCBf] is determined by the UCB:HSA ratio, the [HSA] of each plasma sample was measured using a Bromcresol Green Albumin Determination Kit from Sigma-Aldrich. HSA concentrations were similar for all samples and ranged from 620 to 680 μM. Plasma [FFAu] was measured with ADIFAB2 and ranged from 1.0 to 3.6 nM. The L24P19C7 probe at 0.5 μM was used to measure [UCBf] in 1% plasma (i.e., 6.2 to 6.8 μM HSA) titrated with UCB (FIG. 2). This probe has the following mutations with reference to rat Intestinal Fatty Acid Binding Protein (SEQ ID NO: 4): Y14R M18L L38V V60R A72L A73F R106C Q115R and Y117D. Without the addition of UCB, all samples yielded a [UCBf] of nearly zero, in good agreement with the 0 to 1 nM [UCBf] expected for a healthy adult. […] Indeed, the increase was consistent with the change in [UCBf] predicted using the equilibrium-binding model, confirming the accuracy of the probe in plasma.

T1 sequence (P02768 25-609): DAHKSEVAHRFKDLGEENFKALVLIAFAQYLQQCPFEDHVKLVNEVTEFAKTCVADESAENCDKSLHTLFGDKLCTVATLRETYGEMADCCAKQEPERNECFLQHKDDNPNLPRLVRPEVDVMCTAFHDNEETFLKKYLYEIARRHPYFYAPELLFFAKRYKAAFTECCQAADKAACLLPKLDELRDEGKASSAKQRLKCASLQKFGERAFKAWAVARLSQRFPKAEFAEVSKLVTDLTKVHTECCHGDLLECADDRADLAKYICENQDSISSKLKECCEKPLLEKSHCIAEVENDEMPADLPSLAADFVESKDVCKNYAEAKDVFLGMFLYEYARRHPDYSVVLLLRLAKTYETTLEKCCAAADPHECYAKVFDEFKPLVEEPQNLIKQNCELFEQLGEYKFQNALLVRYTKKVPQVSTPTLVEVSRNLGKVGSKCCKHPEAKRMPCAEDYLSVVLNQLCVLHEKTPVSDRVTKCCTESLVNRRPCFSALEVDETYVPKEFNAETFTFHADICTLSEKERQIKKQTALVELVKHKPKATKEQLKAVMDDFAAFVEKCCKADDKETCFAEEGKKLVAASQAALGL

C=CC1=C(C)/C(=C/c2[nH]c(Cc3[nH]c(/C=C4\NC(=O)C(C)=C4C=C)c(C)c3CCC(=O)O)c(CCC(=O)O)c2C)NC1=O [UCB, unconjugated bilirubin]
Kd: 19 nM
